Results as given in paper PMC6277767, “Broad and Region-Specific Impacts of the Synthetic Cannabinoid CP 55,940 in Adolescent and Adult Female Mouse Brains” (Frontiers in Molecular Neuroscience, 2018).

Test system: CD1 female mouse brain lipidome
Experiment: Brain-region lipid levels (HPLC/MS/MS lipidomics) 2 h after single i.p. 3 mg/kg CP 55,940 vs vehicle
Format: in vivo
Set-up: N-arachidonoyl phenylalanine level, Mean / N-stearoyl tryptophan level, Mean / N-stearoyl proline level, Mean / N-stearoyl leucine level, Mean / N-stearoyl phenylalanine level, Mean / N-stearoyl serine level, Mean / N-stearoyl methionine level, Mean: unit: moles per gram
Settings: striatum
Procedure: The Bloomington Institutional Animal Care and Use Committee of Indiana University reviewed and approved the animal procedures. Female mice from the CD1 strain were utilized to match our study examining THC’s effects on the brain lipidome ([Leishman et al., 2018]). Mice were given a single i.p. injection of either 3 mg/kg CP or 1:1:18 cremophor:ethanol:saline vehicle (please refer to the section “3 mg/kg CP Is Relevant for Synthetic Cannabinoid Abuse and Has Stronger Effects on the Female Mouse Brain Lipidome During Adolescence” for a justification of dose and use of female mice). Three different age groups were given injections: PND 35 and PND 50 adolescents, and adult mice (PND 113). At least eight mice in each age group received CP and at least eight received vehicle. Matching the THC study time course ([Leishman et al., 2018]), mice were sacrificed via rapid decapitation 2 h after injection. Brains were immediately removed and flash-frozen in liquid nitrogen, and then stored at -80°C until dissections were performed. Brains were dissected on an ice-cold dissection plate into the following regions: STR, HIPP, CER, THAL, CTX, HYP, MID, and STEM. These abbreviations for these brain areas will be used exclusively when discussing the results generated by these specific dissections. Each dissected area was immediately placed in liquid nitrogen and then stored at -80°C until used for lipid extraction.
Tissue extracts were performed as previously described ([Bradshaw et al., 2006]; [Stuart et al., 2013]; [Raboune et al., 2014]; [Leishman et al., 2016a],[b], [2017], [2018]). First, samples were shock frozen in liquid nitrogen, weighed, and transferred to a centrifuge tube. The mass of the largest sample was multiplied by 50 to determine how many milliliters of HPLC-grade methanol (Fisher, Fair Lawn, NJ, United States) to add. Then, samples were spiked with 500 pmol deuterium-labeled NAGly (d8NAGly; Cayman Chemical, Ann Arbor, MI, United States). Samples were placed on ice in darkness for 2 h then individually homogenized and centrifuged at 19,000 × g for 20 min at 20°C. Supernatants were diluted with HPLC water (purified in house) to make a solution of 75% water, 25% supernatant. Lipids were partially purified on C18 solid phase extraction columns (Agilent, Palo Alto, CA, United States). A series of four elutions with 1.5 mL of 60%, 75%, 85%, and 100% methanol were collected ([Stuart et al., 2013]; [Leishman et al., 2016a],[b], [2018]).
As previously described ([Bradshaw et al., 2006]; [Tan et al., 2006]; [Smoum et al., 2010]; [Stuart et al., 2013]; [Tortoriello et al., 2013]; [Raboune et al., 2014]; [Leishman et al., 2016a],[b], [2017], [2018]), samples were analyzed using an Applied Biosystems API 3000 triple quadrupole mass spectrometer with electrospray ionization (Foster City, CA, United States). Using an Agilent XDB-C18 reversed phase analytical column and optimized mobile phase gradients, 20 μL from each elution were chromatographed. Two Shimadzu 10ADvp pumps (Columbia, MD, United States) provided the pressure for gradient elution. Mobile phase A: 20% methanol, 80% water (v/v) and 1 mM ammonium acetate (Sigma, St. Louis, MO, United States). Mobile phase B: 100% methanol, 1 mM ammonium acetate. Every method run began with 0% mobile phase B, reached 100% mobile phase B flowing at 0.2 mL/min, and gradually returned to 0% mobile phase B.
This screening library will be referred to as the lipidome when discussing data from this study. HPLC/MS/MS data were analyzed using Analyst software (Applied Biosystems) ([Bradshaw et al., 2006]; [Tan et al., 2006]; [Stuart et al., 2013]; [Tortoriello et al., 2013]; [Raboune et al., 2014]; [Leishman et al., 2016a],[b], [2017], [2018]). Chromatograms (Supplementary Figure 3) were generated by determining the retention time of analytes from the analytical column with a [M-1] or [M+1] parent peak and a fragmentation peak corresponding to the programmed values. […]

[1] = PND 50 female mice, 3mg/kg CP 55,940, mean

**Q.** Which results are given for `CCCCCCC(C)(C)c1ccc([C@@H]2C[C@H](O)CC[C@H]2CCCO)c(O)c1` [CP 55,940]?
**A.** N-palmitoyl valine level [1]: 1.79E-13; N-stearoyl GABA level [1]: 3.86E-12; N-stearoyl alanine level [1]: 6.45E-13; N-stearoyl ethanolamine level [1]: 2.79E-11; N-stearoyl glycine level [1]: 4.91E-13; N-stearoyl leucine level [1]: 1.1E-12; N-stearoyl methionine level [1]: 8.01E-13; N-stearoyl phenylalanine level [1]: 1.27E-12; N-stearoyl proline level [1]: BDL; N-stearoyl serine level [1]: 5.13E-11; N-stearoyl tryptophan level [1]: BDL; N-stearoyl tyrosine level [1]: 9.9E-14; Oleic acid level [1]: 2.17E-10; PGE2 level [1]: 7.65E-11; PGF2α level [1]: 9.33E-11; THC level [1]: BDL; 2-arachidonoyl-sn-glycerol level, Mean (adult, 3 mg/kg CP 55,940): 1.6E-09; 2-linoleoyl-sn-glycerol level, Mean (adult, 3 mg/kg CP 55,940): 1.72E-10; 2-oleoyl-sn-glycerol level, Mean (adult, 3 mg/kg CP 55,940): 1.58E-09; 2-palmitoyl-sn-glycerol level, Mean (adult, 3 mg/kg CP 55,940): 1.51E-10; 6-ketoPGF1α level, Mean (adult, 3 mg/kg CP 55,940): PISSR; 11-OH-THC level, Mean (adult, 3 mg/kg CP 55,940): BDL; 11-nor-9-carboxyTHC level, Mean (adult, 3 mg/kg CP 55,940): BDL; Arachidonic acid level, Mean (adult, 3 mg/kg CP 55,940): 1.93E-09; Cannabidiol level, Mean (adult, 3 mg/kg CP 55,940): BDL; Linoleic acid level, Mean (adult, 3 mg/kg CP 55,940): 7.69E-10; N- stearoyl valine level, Mean (adult, 3 mg/kg CP 55,940): PISSR; N-arachidonoyl GABA level, Mean (adult, 3 mg/kg CP 55,940): 2.43E-11; N-arachidonoyl alanine level, Mean (adult, 3 mg/kg CP 55,940): 2.03E-12; N-arachidonoyl dopamine level, Mean (adult, 3 mg/kg CP 55,940): BDL; N-arachidonoyl ethanolamine level, Mean (adult, 3 mg/kg CP 55,940): 2.19E-11; N-arachidonoyl glycine level, Mean (adult, 3 mg/kg CP 55,940): 6.38E-13; N-arachidonoyl methionine level, Mean (adult, 3 mg/kg CP 55,940): BDL; N-arachidonoyl phenylalanine level, Mean (adult, 3 mg/kg CP 55,940): 9.64E-14; N-arachidonoyl proline level, Mean (adult, 3 mg/kg CP 55,940): BDL; N-arachidonoyl serine level, Mean (adult, 3 mg/kg CP 55,940): PISSR; N-arachidonoyl taurine level, Mean (adult, 3 mg/kg CP 55,940): 9.74E-11; N-arachidonoyl tryptophan level, Mean (adult, 3 mg/kg CP 55,940): BDL; N-arachidonoyl tyrosine level, Mean (adult, 3 mg/kg CP 55,940): PISSR; N-docosahexaenoyl GABA level, Mean (adult, 3 mg/kg CP 55,940): PISSR; N-docosahexaenoyl alanine level, Mean (adult, 3 mg/kg CP 55,940): BDL; N-docosahexaenoyl ethanolamine level, Mean (adult, 3 mg/kg CP 55,940): 2.36E-11; N-docosahexaenoyl glycine level, Mean (adult, 3 mg/kg CP 55,940): PISSR; N-docosahexaenoyl leucine level, Mean (adult, 3 mg/kg CP 55,940): PISSR; N-docosahexaenoyl methionine level, Mean (adult, 3 mg/kg CP 55,940): BDL; N-docosahexaenoyl phenylalanine level, Mean (adult, 3 mg/kg CP 55,940): PISSR; N-docosahexaenoyl proline level, Mean (adult, 3 mg/kg CP 55,940): BDL; N-docosahexaenoyl serine level, Mean (adult, 3 mg/kg CP 55,940): PISSR; N-docosahexaenoyl tryptophan level, Mean (adult, 3 mg/kg CP 55,940): BDL; N-docosahexaenoyl tyrosine level, Mean (adult, 3 mg/kg CP 55,940): PISSR; N-docosahexaenoyl valine level, Mean (adult, 3 mg/kg CP 55,940): BDL; N-linoleoyl GABA level, Mean (adult, 3 mg/kg CP 55,940): PISSR; N-linoleoyl alanine level, Mean (adult, 3 mg/kg CP 55,940): PISSR; N-linoleoyl ethanolamine level, Mean (adult, 3 mg/kg CP 55,940): 3.83E-11; N-linoleoyl glycine level, Mean (adult, 3 mg/kg CP 55,940): PISSR; N-linoleoyl leucine level, Mean (adult, 3 mg/kg CP 55,940): PISSR; N-linoleoyl methionine level, Mean (adult, 3 mg/kg CP 55,940): BDL; N-linoleoyl phenylalanine level, Mean (adult, 3 mg/kg CP 55,940): PISSR; N-linoleoyl proline level, Mean (adult, 3 mg/kg CP 55,940): BDL; N-linoleoyl serine level, Mean (adult, 3 mg/kg CP 55,940): 1.09E-10; N-linoleoyl tryptophan level, Mean (adult, 3 mg/kg CP 55,940): BDL; N-linoleoyl tyrosine level, Mean (adult, 3 mg/kg CP 55,940): BDL; N-linoleoyl valine level, Mean (adult, 3 mg/kg CP 55,940): PISSR; N-nervonoyl valine level, Mean (adult, 3 mg/kg CP 55,940): BDL; N-oleoyl GABA level, Mean (adult, 3 mg/kg CP 55,940): 1.7E-11; N-oleoyl alanine level, Mean (adult, 3 mg/kg CP 55,940): 3.96E-12; N-oleoyl dopamine level, Mean (adult, 3 mg/kg CP 55,940): BDL; N-oleoyl ethanolamine level, Mean (adult, 3 mg/kg CP 55,940): 1.57E-10; N-oleoyl glycine level, Mean (adult, 3 mg/kg CP 55,940): 5.26E-13; N-oleoyl leucine level, Mean (adult, 3 mg/kg CP 55,940): 1.99E-12; N-oleoyl methionine level, Mean (adult, 3 mg/kg CP 55,940): PISSR; N-oleoyl phenylalanine level, Mean (adult, 3 mg/kg CP 55,940): 4.84E-13; N-oleoyl proline level, Mean (adult, 3 mg/kg CP 55,940): BDL; N-oleoyl serine level, Mean (adult, 3 mg/kg CP 55,940): 5.05E-10; N-oleoyl tryptophan level, Mean (adult, 3 mg/kg CP 55,940): BDL; N-oleoyl tyrosine level, Mean (adult, 3 mg/kg CP 55,940): PISSR; N-oleoyl valine level, Mean (adult, 3 mg/kg CP 55,940): PISSR; N-palmitoyl GABA level, Mean (adult, 3 mg/kg CP 55,940): 2.94E-11; N-palmitoyl alanine level, Mean (adult, 3 mg/kg CP 55,940): 3.83E-12; N-palmitoyl ethanolamine level, Mean (adult, 3 mg/kg CP 55,940): 7.87E-11; N-palmitoyl glycine level, Mean (adult, 3 mg/kg CP 55,940): 2.5E-12; N-palmitoyl leucine level, Mean (adult, 3 mg/kg CP 55,940): 3E-12; N-palmitoyl methionine level, Mean (adult, 3 mg/kg CP 55,940): PISSR; N-palmitoyl phenylalanine level, Mean (adult, 3 mg/kg CP 55,940): 3.31E-13; N-palmitoyl proline level, Mean (adult, 3 mg/kg CP 55,940): PISSR; N-palmitoyl serine level, Mean (adult, 3 mg/kg CP 55,940): 4.99E-11; N-palmitoyl tryptophan level, Mean (adult, 3 mg/kg CP 55,940): BDL; N-palmitoyl tyrosine level, Mean (adult, 3 mg/kg CP 55,940): 2.47E-12; N-palmitoyl valine level, Mean (adult, 3 mg/kg CP 55,940): PISSR; N-stearoyl GABA level, Mean (adult, 3 mg/kg CP 55,940): 2.26E-11; N-stearoyl alanine level, Mean (adult, 3 mg/kg CP 55,940): 4.15E-12; N-stearoyl ethanolamine level, Mean (adult, 3 mg/kg CP 55,940): 3.49E-11; N-stearoyl glycine level, Mean (adult, 3 mg/kg CP 55,940): 3.37E-12; N-stearoyl leucine level, Mean (adult, 3 mg/kg CP 55,940): 3.52E-12; N-stearoyl phenylalanine level, Mean (adult, 3 mg/kg CP 55,940): 4.25E-13; N-stearoyl proline level, Mean (adult, 3 mg/kg CP 55,940): BDL; N-stearoyl serine level, Mean (adult, 3 mg/kg CP 55,940): PISSR; N-stearoyl tryptophan level, Mean (adult, 3 mg/kg CP 55,940): BDL; Oleic acid level, Mean (adult, 3 mg/kg CP 55,940): 1.22E-09; PGE2 level, Mean (adult, 3 mg/kg CP 55,940): 2.64E-10; PhosphoLEA level, Mean (adult, 3 mg/kg CP 55,940): 2.11E-11; THC level, Mean (adult, 3 mg/kg CP 55,940): BDL
